Experimental data taken from ChEMBL document CHEMBL3132769, “Fragment growing to retain or alter the selectivity of anchored kinase hinge-binding fragments” (Medchemcomm, 2014).

What was measured:
[1] = biological target: Protein kinase C alpha type (Homo sapiens) (UniProt P17252); assay: Inhibition of human truncated PKC alpha expressed in baculovirus assessed as substrate phosphorylation using fluorescence-labelled peptides as substrate at 1000 uM after 90 mins by microfluidic peptide phosphorylation assay
[2] = biological target: T1, MAP kinase-activated protein kinase 5 (Homo sapiens) (UniProt Q8IW41); assay: Inhibition of human full length PRAK expressed in baculovirus assessed as substrate phosphorylation using fluorescence-labelled peptides as substrate at 0.06 uM after 90 mins by microfluidic peptide phosphorylation assay
T1 sequence (whole entry): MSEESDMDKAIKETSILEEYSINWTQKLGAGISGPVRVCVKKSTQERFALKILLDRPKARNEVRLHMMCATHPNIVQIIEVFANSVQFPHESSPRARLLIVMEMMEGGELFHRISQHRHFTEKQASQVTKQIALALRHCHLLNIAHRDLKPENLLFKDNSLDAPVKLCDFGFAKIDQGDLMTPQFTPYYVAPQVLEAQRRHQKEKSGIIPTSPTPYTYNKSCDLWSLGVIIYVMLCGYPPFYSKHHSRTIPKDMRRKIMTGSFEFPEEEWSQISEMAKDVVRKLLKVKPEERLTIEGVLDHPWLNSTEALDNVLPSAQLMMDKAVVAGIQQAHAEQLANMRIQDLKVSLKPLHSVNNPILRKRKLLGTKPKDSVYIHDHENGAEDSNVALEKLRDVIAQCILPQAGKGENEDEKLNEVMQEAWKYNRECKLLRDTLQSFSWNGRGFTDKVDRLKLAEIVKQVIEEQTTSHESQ

[3] = biological target: Serine/threonine-protein kinase PAK 2 (Homo sapiens) (UniProt Q13177); settings: 0.1 uM
Chain of Serine/threonine-protein kinase PAK 2 (Homo sapiens) (Q13177 whole entry): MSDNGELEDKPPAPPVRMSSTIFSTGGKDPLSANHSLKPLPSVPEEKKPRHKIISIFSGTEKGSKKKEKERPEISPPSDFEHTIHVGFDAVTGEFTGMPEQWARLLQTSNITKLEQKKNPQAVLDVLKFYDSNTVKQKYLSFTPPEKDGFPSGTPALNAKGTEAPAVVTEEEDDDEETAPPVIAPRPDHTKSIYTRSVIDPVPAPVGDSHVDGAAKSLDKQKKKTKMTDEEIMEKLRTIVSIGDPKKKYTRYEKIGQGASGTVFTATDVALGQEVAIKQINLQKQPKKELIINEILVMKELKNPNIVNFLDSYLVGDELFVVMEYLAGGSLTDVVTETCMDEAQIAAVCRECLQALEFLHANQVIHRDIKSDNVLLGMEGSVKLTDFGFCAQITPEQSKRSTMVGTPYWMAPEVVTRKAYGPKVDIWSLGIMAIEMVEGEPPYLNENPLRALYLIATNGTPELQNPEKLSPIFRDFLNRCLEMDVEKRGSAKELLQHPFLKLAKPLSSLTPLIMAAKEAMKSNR
Description: Inhibition of human truncated PAK2 expressed in Escherichia coli cell assessed as substrate phosphorylation using fluorescence-labelled peptides as substrate at 0.1 uM after 90 mins by microfluidic peptide phosphorylation assay

[4] = biological target: Calcium/calmodulin-dependent protein kinase type II subunit beta (Homo sapiens) (UniProt Q13554); settings: 0.1 uM
Chain of Calcium/calmodulin-dependent protein kinase type II subunit beta (Homo sapiens) (Q13554 whole entry): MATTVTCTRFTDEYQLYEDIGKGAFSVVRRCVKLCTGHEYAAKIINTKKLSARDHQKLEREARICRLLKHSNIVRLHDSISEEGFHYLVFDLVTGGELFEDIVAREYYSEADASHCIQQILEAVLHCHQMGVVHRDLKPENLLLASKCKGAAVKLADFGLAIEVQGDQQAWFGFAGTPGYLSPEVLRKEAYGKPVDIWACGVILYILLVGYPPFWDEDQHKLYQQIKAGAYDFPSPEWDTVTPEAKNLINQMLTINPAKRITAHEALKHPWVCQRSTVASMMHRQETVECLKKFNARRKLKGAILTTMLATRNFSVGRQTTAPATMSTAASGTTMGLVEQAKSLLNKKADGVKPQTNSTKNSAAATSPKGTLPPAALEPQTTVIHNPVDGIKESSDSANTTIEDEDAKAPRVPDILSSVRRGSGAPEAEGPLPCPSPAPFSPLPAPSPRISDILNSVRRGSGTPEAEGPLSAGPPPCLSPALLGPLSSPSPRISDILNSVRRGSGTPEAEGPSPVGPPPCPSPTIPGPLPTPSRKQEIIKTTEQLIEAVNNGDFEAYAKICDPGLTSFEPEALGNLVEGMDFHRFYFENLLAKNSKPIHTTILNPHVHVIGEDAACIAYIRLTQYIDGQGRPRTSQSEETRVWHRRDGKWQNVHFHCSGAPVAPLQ
Description: Inhibition of human CAMK2 beta catalytic domain expressed in baculovirus assessed as substrate phosphorylation using fluorescence-labelled peptides as substrate at 0.1 uM after 90 mins by microfluidic peptide phosphorylation assay

[5] = biological target: T2, Mitogen-activated protein kinase 13 (Homo sapiens) (UniProt O15264); assay: Inhibition of human full length p38 delta expressed in Escherichia coli cell assessed as substrate phosphorylation using fluorescence-labelled peptides as substrate at 420 uM after 90 mins by microfluidic peptide phosphorylation assay
T2 sequence (whole entry): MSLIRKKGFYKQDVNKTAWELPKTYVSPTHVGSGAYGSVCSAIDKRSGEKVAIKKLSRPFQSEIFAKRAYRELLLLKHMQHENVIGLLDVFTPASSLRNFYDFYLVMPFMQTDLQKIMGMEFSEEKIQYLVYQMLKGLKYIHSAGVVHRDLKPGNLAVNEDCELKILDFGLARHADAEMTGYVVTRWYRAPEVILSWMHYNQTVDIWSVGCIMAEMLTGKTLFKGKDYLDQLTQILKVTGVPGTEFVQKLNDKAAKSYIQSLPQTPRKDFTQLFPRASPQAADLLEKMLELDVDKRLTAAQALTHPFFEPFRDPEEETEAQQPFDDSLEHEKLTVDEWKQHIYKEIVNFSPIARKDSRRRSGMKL

[6] = biological target: T3, Inhibitor of nuclear factor kappa-B kinase subunit beta (Homo sapiens) (UniProt O14920); assay: Inhibition of human full length IKK beta expressed in baculovirus assessed as substrate phosphorylation using fluorescence-labelled peptides as substrate at 420 uM after 90 mins by microfluidic peptide phosphorylation assay
T3 sequence (whole entry): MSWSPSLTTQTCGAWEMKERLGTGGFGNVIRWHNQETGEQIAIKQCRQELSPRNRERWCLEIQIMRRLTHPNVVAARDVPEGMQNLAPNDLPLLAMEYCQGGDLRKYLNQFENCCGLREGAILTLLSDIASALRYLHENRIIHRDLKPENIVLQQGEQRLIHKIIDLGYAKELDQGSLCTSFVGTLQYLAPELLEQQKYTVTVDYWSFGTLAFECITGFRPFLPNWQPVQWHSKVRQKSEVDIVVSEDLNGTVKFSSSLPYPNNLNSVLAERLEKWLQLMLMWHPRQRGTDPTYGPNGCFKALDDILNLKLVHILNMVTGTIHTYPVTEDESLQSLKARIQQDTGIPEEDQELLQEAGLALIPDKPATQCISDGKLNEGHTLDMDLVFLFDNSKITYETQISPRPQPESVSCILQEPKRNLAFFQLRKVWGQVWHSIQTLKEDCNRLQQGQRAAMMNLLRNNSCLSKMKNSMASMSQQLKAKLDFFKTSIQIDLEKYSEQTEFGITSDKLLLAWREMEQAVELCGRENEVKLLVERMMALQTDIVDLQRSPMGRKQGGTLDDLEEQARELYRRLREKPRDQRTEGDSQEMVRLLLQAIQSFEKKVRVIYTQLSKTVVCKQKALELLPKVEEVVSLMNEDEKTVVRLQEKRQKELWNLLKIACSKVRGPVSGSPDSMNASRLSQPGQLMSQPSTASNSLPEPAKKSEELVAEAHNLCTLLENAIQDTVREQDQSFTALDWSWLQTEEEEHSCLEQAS

Homo sapiens = species on record: Homo sapiens; assay: Inhibition of human P70S6K catalytic domain expressed in baculovirus assessed as substrate phosphorylation using fluorescence-labelled peptides as substrate at 9 uM after 90 mins by microfluidic peptide phosphorylation assay
[7] = biological target: T4, Testis-specific serine/threonine-protein kinase 1 (Homo sapiens) (UniProt Q9BXA7); assay: Inhibition of human full length TSSK1 expressed in baculovirus assessed as substrate phosphorylation using fluorescence-labelled peptides as substrate at 70 uM after 90 mins by microfluidic peptide phosphorylation assay
T4 sequence (whole entry): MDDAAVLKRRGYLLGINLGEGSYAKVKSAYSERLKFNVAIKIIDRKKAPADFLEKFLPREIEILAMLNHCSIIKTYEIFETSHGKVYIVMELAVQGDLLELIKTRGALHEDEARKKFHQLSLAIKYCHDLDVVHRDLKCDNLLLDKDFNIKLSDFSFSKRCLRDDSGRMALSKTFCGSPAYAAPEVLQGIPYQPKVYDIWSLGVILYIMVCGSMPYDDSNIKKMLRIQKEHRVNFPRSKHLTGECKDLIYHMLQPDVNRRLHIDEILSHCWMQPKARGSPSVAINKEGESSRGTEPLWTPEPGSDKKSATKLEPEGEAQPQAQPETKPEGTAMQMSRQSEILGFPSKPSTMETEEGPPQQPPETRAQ

Q: Which inhibition [1] does the source give for c1cnc2[nH]ccc2c1 here?
A: 43%

Q: Which inhibition [2] does the source give for NC1(Cc2ccc(Cl)cc2)CCN(c2ncnc3[nH]ccc23)CC1 here?
A: 0%

Q: Which results are given for C[C@H](CN(C)C)Oc1nc(Nc2cc3cccc(Cl)c3cn2)cnc1C#N?
A: inhibition [3]: 0%; inhibition [4]: 0%

Q: How did the inhibition [5] turn out when c1nc(N2CCOCC2)c2nc[nH]c2n1 was run?
A: 34%

Q: What about the inhibition [6] of the same compound?
A: 87%

Q: Which inhibition (Homo sapiens) does the source give for NCC1CN(c2ncnc3[nH]c4cnccc4c23)CCO1 (stereo not drawn) here?
A: 14.5%

Q: With CNCc1ccc(-c2ncnc3[nH]cnc23)cc1 as the compound, how does the inhibition [7] read?
A: 62%
